Residues, ends and D or L forms follow the SMILES beside them.
How the values were obtained:
[1] = system: Escherichia coli; experiment: Bacterial growth inhibition (OD600), E. coli; format: cell-based; details: 0-50 µM overnight, OD 600, n = 3
Experimental: We further looked at mRNA abundance by quantitative RT-PCR (qRT-PCR) to evaluate gene expression for type 1 interferon IFNB1, chemokine CXCL10, and cytokines TSLP and IL6 in NHEKs treated with selected LL-34 parent, LL-34—F5A, I24A, F27A, and L31A—peptides either alone or in combination with U1 dsRNA for 18 h (Fig. 1, E–H).
Methicillin-resistant S. aureus USA300 and methicillin-sensitive S. aureus SA113 (American Type Culture Collection 35556) were cultured in 3% tryptic soy broth overnight at 37 °C with shaking at 250 rpm. GAS M49 strain NZ131 was cultured in Todd Hewitt broth supplemented with 1% yeast extract overnight at 37 °C without shaking. E. coli R1 strain RS218 was cultured in LB broth overnight at 37 °C with shaking at 250 rpm. MIC values were determined using a round-bottom 96-well microdilution method with RPMI cell culture media (as a source of Ca^2+ and Mg^2+) supplemented with tryptic soy broth, Todd Hewitt broth/yeast extract, or LB to facilitate growth of the respective bacterial strains. Overnight bacterial cultures were subcultured into fresh broth and grown to midlate log phase indicated by an absorbance at 600 nm value between 0.8 and 1.0 for each bacterial strain. The absorbance was then normalized to provide a concentration of 1 × 10^7 colony-forming units/ml in RPMI medium. The LL-34 parent and alanine scan mutants were serially diluted into the 96-well microtiter plates containing prewarmed RPMI bacterial growth medium. A 10 μl aliquot of the midlate log phase bacteria was inoculated into the 96-well microtiter plates that contained 95 μl of RPMI medium with or without the LL-34 peptide dilutions and incubated for 16 to 18 h at […] with shaking at 200 rpm. Inhibition of growth was determined by measuring the absorbance at 600 nm readings of each well using a microplate reader (Infinite M200 Pro; Tecan). The MIC of each bacterial strain was determined by the lowest peptide concentration that inhibited more than 80% bacterial growth.
(A) NHEKs and HDMECs (B) were treated with LL34- parent peptide and all the 34 alanine substituted peptides (Pep L1A-Pep R34A) and LL37 at 2 µM for 16 h. IL-6 protein secretion was assessed with ELISA (n=3) (C-F) LL34-Parent, LL34 F5A, LL34 I24A, LL34 F27A, and LL34 L31A peptides were incubated with S. aureus USA 300, S. aureus SA113, Group A Streptococcus (GAS) and E. coli at increasing concentrations (0-50 µM) overnight, and bacterial culture growth was assayed as absorbance at OD 600 (n=3).

[2] = system: TBK1 and IRF7 phosphorylation in NHEKs; experiment: Immunoblot of MAVS pathway signaling in NHEKs; format: cell-based, human; details: U1 dsRNA 2.5 μg/ml + peptide 2 μM, in comparison to U1 + LL-34 parent
Text: RNA-Seq was utilized to obtain a global transcriptomic profile and map unique immune pathways in NHEKs exposed to U1 dsRNA, LL-34 parent, Pep I24A, Pep L31A, and a combination of U1 dsRNA and LL-34 parent, Pep I24A, or Pep L31A. […] Similarly, 448 and 325 unique differentially regulated genes were observed after U1 + I24A and U1 + L31A treatments, respectively (Fig. 3, A and B and Fig. S2, A and B). […] These pathways included type 1 interferon signaling, cytokine signaling, response to external biotic stimulus, and cytokine-mediated signaling pathway. […] We verified the repression of mitochondrial antiviral signaling (MAVS) with immunoblot analysis. […]
Figure 3 LL-34 I24A and L31A mutations result in loss of innate immune vetting of U1 dsRNA leading to repressed activation of antiviral and innate immune pathways.A, Venn diagram for all differentially expressed genes from NHEKs treated with U1 dsRNA, LL-34-parent, and combinations of either U1 dsRNA and LL-34-parent. […] Protein expression of p-TBK1, TBK1, p-IRF7, IRF7, p-Akt, Akt, p-ERK1/2, and ERK1/2 was assessed with immunoblot. […]
Cells were lysed in complete radioimmunoprecipitation assay buffer with added 1× protease and Phosphatase Inhibitor Cocktail (Life Technologies). […] Total protein was quantified for each treatment with Bio-Rad Protein Assay (Bio-Rad). […]

Compound | Action against Gram-negative E. coli [1] | Phosphorylation of TBK1 and IRF7 [2]
CC[C@H](C)[C@H](NC(=O)[C@H](CCCCN)NC(=O)[C@H](CCC(=O)O)NC(=O)[C@H](CCCCN)NC(=O)[C@H](CO)NC(=O)[C@H](CCCCN)NC(=O)[C@H](CCCNC(=N)N)NC(=O)[C@H](Cc1ccccc1)NC(=O)[C@H](Cc1ccccc1)NC(=O)[C@H](CC(=O)O)NC(=O)CNC(=O)[C@H](CC(C)C)NC(=O)[C@@H](N)CC(C)C)C(=O)NCC(=O)N[C@@H](CCCCN)C(=O)N[C@@H](CCC(=O)O)C(=O)N[C@@H](Cc1ccccc1)C(=O)N[C@@H](CCCCN)C(=O)N[C@@H](CCCNC(=N)N)C(=O)N[C@H](C(=O)N[C@H](C(=O)N[C@@H](CCC(N)=O)C(=O)N[C@@H](CCCNC(=N)N)C(=O)N[C@@H](C)C(=O)N[C@@H](CCCCN)C(=O)N[C@@H](CC(=O)O)C(=O)N[C@@H](Cc1ccccc1)C(=O)N[C@@H](CC(C)C)C(=O)N[C@@H](CCCNC(=N)N)C(=O)N[C@@H](CC(N)=O)C(=O)N[C@@H](CC(C)C)C(=O)N[C@H](C(=O)N1CCC[C@H]1C(=O)N[C@@H](CCCNC(=N)N)C(=O)O)C(C)C)C(C)C)[C@@H](C)CC [LL-34—I24A] (H-LLGDFFRKSKEKIGKEFKRIVQRAKDFLRNLVPR-OH) | little action | Decreased phosphorylation
CC[C@H](C)[C@H](NC(=O)[C@H](CCCCN)NC(=O)[C@H](CCC(=O)O)NC(=O)[C@H](CCCCN)NC(=O)[C@H](CO)NC(=O)[C@H](CCCCN)NC(=O)[C@H](CCCNC(=N)N)NC(=O)[C@H](Cc1ccccc1)NC(=O)[C@H](Cc1ccccc1)NC(=O)[C@H](CC(=O)O)NC(=O)CNC(=O)[C@H](CC(C)C)NC(=O)[C@@H](N)CC(C)C)C(=O)NCC(=O)N[C@@H](CCCCN)C(=O)N[C@@H](CCC(=O)O)C(=O)N[C@@H](Cc1ccccc1)C(=O)N[C@@H](CCCCN)C(=O)N[C@@H](CCCNC(=N)N)C(=O)N[C@H](C(=O)N[C@H](C(=O)N[C@@H](CCC(N)=O)C(=O)N[C@@H](CCCNC(=N)N)C(=O)N[C@H](C(=O)N[C@@H](CCCCN)C(=O)N[C@@H](CC(=O)O)C(=O)N[C@@H](Cc1ccccc1)C(=O)N[C@@H](CC(C)C)C(=O)N[C@@H](CCCNC(=N)N)C(=O)N[C@@H](CC(N)=O)C(=O)N[C@@H](C)C(=O)N[C@H](C(=O)N1CCC[C@H]1C(=O)N[C@@H](CCCNC(=N)N)C(=O)O)C(C)C)[C@@H](C)CC)C(C)C)[C@@H](C)CC [LL-34—L31A] (H-LLGDFFRKSKEKIGKEFKRIVQRIKDFLRNAVPR-OH) | little action | Decreased phosphorylation

Reference: PMC8214221, “Sequence determinants in the cathelicidin LL-37 that promote inflammation via presentation of RNA to scavenger receptors” (The Journal of Biological Chemistry, 2021)
